Tests used:
[1] = system: polyglucosan body (PB) in APBD patient-derived fibroblasts; assay: High content (image-based) PAS screening assay for polyglucosan bodies; format: cell-based, human; conditions: 0, 1, 5, 10 and 50 μM
Method: All the steps of the assay were performed automatically using a Freedom Evo 150 liquid handling robot (Tecan). APBD patient-derived fibroblasts were seeded at a density of 800 cells/well in DMEM (Gibco) supplemented with 1 mM sodium pyruvate (Gibco), 1% antibiotics (Biological Industries, Israel) and 5% fetal bovine serum (Hyclone) into 384 well microclear plates (Greiner). The plates were transferred by the robotic arm (RoMa) into an automated incubator (Liconic), integrated with the robotic system, where they were incubated at 37° C. with 5% CO2. Following 24 h incubation, the medium was replaced by the robot using medium supplemented with 10 μM of each screened compound (0.1% DMSO final concentration, all prepared by the robot). The screened compounds were part of the Diverset CL collection purchased from ChemBridge (10,084 out of 50,000 molecules).
Next, these cells were cultured for another 24 h in the automated incubator, and, using the robot, washed them with PBS (Biological Industries, Israel), the cells were fixed with 4% paraformaldehyde (PFA), washed again with PBS, neutralized the previously added PFA by ammonium chloride (Sigma Aldrich), washed with PBS, permeabilized with 0.1% Triton X-100 (Sigma Aldrich), and washed again with PBS.
Following this, a robot was used to treat the fixed cells with 0.5 g/dl diastase (or amylase, Sigma Aldrich) for 5 minutes at 37° C. in the automated incubator, wash with PBS, stained with PAS (Merck), Hoechst 33342 (Sigma Aldrich) and Cell Mask Deep Red (Molecular Probes) and wash with PBS. Images of stained cells were then acquired by the IN Cell Analyzer 2000 (GE Healthcare) and analyzed using the IN Cell Investigator (GE Healthcare) applying an algorithm that quantified the PAS signal within each Cell Mask stained cell.
Images were segmented based on the Cell Mask signal which was linked with the segmentation of the nuclei, employing an empirically established sensitivity and kernel size for allowing the best segmentation. Once these nucleus-cytoplasm complex objects were selected, the software calculated the number of these objects (cell number) as well as the intensity of the PAS signal within each of them. All the assay parameters (including the acquisition exposure times, objective, and the analysis parameters) were kept constant throughout the whole screening campaign for allowing comparison of signals obtained from different batches of assay within the campaign.
The assay was performed as mentioned above, but with compound concentrations of 1, 5, 10, and 50 μM, instead of a constant concentration of 10 μM.
The discarded data was presumably associated with cells affected by toxic compounds. In the remaining data, the measured population mean PB intensity was normalized. Based on a series of images used for training, compounds were considered as positive only where following treatment the normalized PB mean intensity was at least under −1.2 z-score of the scale. Following this approach, 85 potential hits out of the 10,084 screened compounds were selected (0.84%).

recombinant human GS1 = target: T1, recombinant human GS1 (Homo sapiens, UniProt P13807); assay: In vitro GS activity assay; format: biochemical; conditions: 50 μM; unpaired t-tests, p<0.05
T1 sequence (P13807 1-737): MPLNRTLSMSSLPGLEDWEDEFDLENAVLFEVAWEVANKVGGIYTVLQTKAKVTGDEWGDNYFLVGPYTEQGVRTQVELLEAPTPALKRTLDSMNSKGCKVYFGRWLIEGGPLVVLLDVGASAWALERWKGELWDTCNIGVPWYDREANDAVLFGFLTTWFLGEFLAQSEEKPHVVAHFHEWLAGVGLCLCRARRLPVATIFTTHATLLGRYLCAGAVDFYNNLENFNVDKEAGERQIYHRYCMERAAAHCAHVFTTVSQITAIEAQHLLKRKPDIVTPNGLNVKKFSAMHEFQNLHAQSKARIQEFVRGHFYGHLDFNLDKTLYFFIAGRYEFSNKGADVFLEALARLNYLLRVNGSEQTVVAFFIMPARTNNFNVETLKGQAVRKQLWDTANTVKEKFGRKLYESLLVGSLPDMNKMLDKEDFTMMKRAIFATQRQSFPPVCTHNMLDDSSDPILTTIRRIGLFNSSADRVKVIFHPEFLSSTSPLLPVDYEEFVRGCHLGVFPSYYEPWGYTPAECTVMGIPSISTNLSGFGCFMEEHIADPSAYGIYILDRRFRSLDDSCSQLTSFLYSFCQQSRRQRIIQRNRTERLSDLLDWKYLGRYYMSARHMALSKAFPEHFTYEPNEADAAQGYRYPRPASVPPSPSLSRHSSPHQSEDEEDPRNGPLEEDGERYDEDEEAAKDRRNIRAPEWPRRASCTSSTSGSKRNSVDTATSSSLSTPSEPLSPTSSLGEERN
Method: The reaction was carried out in 96-well plates containing 50 μl of reaction volume (50 mM Tris, pH8, 20 mM EDTA, 25 mM KF, 2 mg/ml glycogen, 10 mM Glucose-6-Phosphate, 1.65 mM UDP[14C]glucose and 100 mM UDP-glucose). To test the inhibitory effect of the hits, each one was included in the reaction at a final concentration of 50 μM. The reaction was initiated with the addition of 20 nM recombinant human GS1, followed by incubation at 37° C. for 30 min. The reaction was then stopped with the addition of 100 μl cold 100% ethanol, and the total suspension was transferred into a 96-well filter plate. Vacuum was applied to remove the ethanol. Five washing steps with 150 μl of cold 66% ethanol then fully removed any non-incorporated UDP[14C]glucose, while the labelled glycogen stayed on the well filters. The plate was dried at 37° C. incubator for 30 min. 50 μl of scintillation fluid was added to each well and the plate was read for 14C signal on Microplate scintillation and luminescence counter Top Count (Perkin Elmer).

SMILES	dose response of diastase resistant cell associated mean PAS intensity normalized by z-score [1]	effect on GS activity (direction of change) (recombinant human GS1)
O=C(CN1CCOC1=O)N1CC[C@@H](c2ccc3ccccc3c2)[C@H](O)C1 (relative stereo) [UDP #5, 3-{2-[(3S*,4S*)-3-hydroxy-4-(2-naphthyl)piperidin-1-yl]-2-oxoethyl}-1,3-oxazolidin-2-one]	concentration dependent	–
Cn1nc(-c2cccs2)cc1C(=O)N1[C@@H]2CC[C@H]1CNC(=O)C2 (relative stereo) [UDP #9, (1S*,6R*)-9-{[1-methyl-3-(2-thienyl)-1H-pyrazol-5-yl]carbonyl}-3,9-diazabicyclo[4.2.1]nonan-4-one]	lowered mean normalized PAS intensity in a non-dose responding manner	–
CCO[C@H]1COC[C@@H]1NC(=O)Cc1c(C)nc(N)nc1C (relative stereo) [UDP #13, 2-(2-amino-4,6-dimethylpyrimidin-5-yl)-N-[(3S*,4R*)-4-ethoxytetrahydrofuran-3-yl]acetamide]	concentration dependent	–
Oc1ccc(-c2cc(NCc3cccnc3)nc3[nH]ccc23)c(F)c1 [UDP #1, 3-fluoro-4-{6-[(pyridin-3-ylmethyl)amino]-1H-pyrrolo[2,3-b]pyridin-4-yl}phenol]	lowered mean normalized PAS intensity in a non-dose responding manner	–
COc1cc(F)c(CN2CCN(c3cncc(C(N)=O)n3)CC2)c(F)c1 [UDP #2, 6-[4-(2,6-difluoro-4-methoxybenzyl)piperazin-1-yl]pyrazine-2-carboxamide]	concentration dependent	–
CC(C)CCN1CCNC(=O)C1CC(=O)N1CCc2[nH]nc(C3CC3)c2C1 (centres unmarked) [UDP #3, 3-[2-(3-cyclopropyl-1,4,6,7-tetrahydro-5H-pyrazolo[4,3-c]pyridin-5-yl)-2-oxoethyl]-4-(3-methylbutyl)-2-piperazinone]	lowered mean normalized PAS intensity in a non-dose responding manner	–
CC(C)n1ccnc1CN1CCC(c2[nH]ncc2-c2cccc(F)c2)CC1 [UDP #6, 4-[4-(3-fluorophenyl)-1H-pyrazol-5-yl]-1-[(1-isopropyl-1H-imidazol-2-yl)methyl]piperidine]	concentration dependent	increasing
Cc1nc(C(C)C)cc(N2CCN(Cc3ncccc3C)CC2)n1 [UDP #7, 4-isopropyl-2-methyl-6-{4-[(3-methylpyridin-2-yl)methyl]piperazin-1-yl}pyrimidine]	lowered mean normalized PAS intensity in a non-dose responding manner	increasing
CC1CCC(=O)N1c1ccc(-n2cnnc2)cc1 (centres unmarked) [UDP #8, 5-methyl-1-[4-(4H-1,2,4-triazol-4-yl)phenyl]pyrrolidin-2-one]	concentration dependent	increasing
Cc1ccc2c(c1)c(CNC(=O)c1ccccc1C1CCNC1)nn2C (centres unmarked) [UDP #10, N-[(1,5-dimethyl-1H-indazol-3-yl)methyl]-2-(3-pyrrolidinyl)benzamide]	lowered mean normalized PAS intensity in a non-dose responding manner	except for compound #10, have significantly changed GS activity
CCc1ccc(CN(C)C(=O)c2ccc3c(c2)no[n+]3[O-])nc1 [UDP #11, N-[(5-ethylpyridin-2-yl)methyl]-N-methyl-2,1,3-benzoxadiazole-5-carboxamide 1-oxide]	concentration dependent	–
O=C(c1ccoc1)N1CCOc2c(O)cc(-c3cccc(Cl)c3)cc2C1 [UDP #12, 7-(3-chlorophenyl)-4-(3-furoyl)-2,3,4,5-tetrahydro-1,4-benzoxazepin-9-ol]	concentration dependent	increasing
CC(C)(C)c1ccc(O)c(-n2cnnc2)c1 [UDP #14, 4-tert-butyl-2-(4H-1,2,4-triazol-4-yl)phenol]	concentration dependent	–
C1CCc2c(n[nH]c2CCNC2CCC3(CCNCC3)CC2)C1 [UDP #15]	concentration dependent	–
COc1ccc(-c2ncc(C)c(N)n2)c(C)c1 [UDP #16, 2-(4-methoxy-2-methylphenyl)-5-methylpyrimidin-4-amine]	lowered mean normalized PAS intensity in a non-dose responding manner	–
Cc1c(NC(=O)c2ccco2)cccc1C(=O)N1CCC2(CCCNC2)C1 (centres unmarked) [UDP #17, N-[3-(2,7-diazaspiro[4.5]dec-2-ylcarbonyl)-2-methylphenyl]-2-furamide]	concentration dependent	–
Cc1ccc(NC(=O)CCn2cnc(-c3ccccc3)c2C2CCOC2)c(C)c1 (centres unmarked) [UDP #18, N-(2,4-dimethylphenyl)-3-[4-phenyl-5-(tetrahydrofuran-3-yl)-1H-imidazol-1-yl]propanamide]	lowered mean normalized PAS intensity in a non-dose responding manner	increasing
